Experimental data published in BindingDB's records for doi:10.1124/mol.52.3.337 (The Schering Plough Research Institute, 1997).
Non-standard residues stand in square brackets, D forms with d. Residues, ends and D or L forms follow the SMILES beside them.

molecular target: T1, Galanin receptor type 2 (Rattus norvegicus, UniProt O08726)
T1 sequence (O08726 whole entry): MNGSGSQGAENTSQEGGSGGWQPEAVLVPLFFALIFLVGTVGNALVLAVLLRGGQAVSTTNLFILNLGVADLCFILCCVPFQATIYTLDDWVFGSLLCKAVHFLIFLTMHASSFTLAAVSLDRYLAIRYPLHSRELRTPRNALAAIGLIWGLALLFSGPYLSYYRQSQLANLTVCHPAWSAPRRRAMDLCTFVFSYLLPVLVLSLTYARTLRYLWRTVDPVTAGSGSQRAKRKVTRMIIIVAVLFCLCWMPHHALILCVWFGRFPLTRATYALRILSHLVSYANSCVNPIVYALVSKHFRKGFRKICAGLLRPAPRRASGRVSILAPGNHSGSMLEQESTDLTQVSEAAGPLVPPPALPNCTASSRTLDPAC

Compound	Ki
CC(C)C[C@H](NC(=O)[C@H](CC(C)C)NC(=O)[C@@H](Cc1c[nH]c2ccccc12)NC(=O)[C@H](Cc1ccccc1)NC(=O)[C@@H](Cc1c[nH]c2ccccc12)NC(=O)[C@H](CCC(N)=O)NC(=O)[C@H](CCC(N)=O)NC(=O)[C@@H]1CCCN1C(=O)[C@H](CCCCN)NC(=O)[C@@H]1CCCN1C(=O)[C@@H](CCCNC(=N)N)NC(=O)[C@@H]1CCCN1C(=O)CNC(=O)[C@H](CC(C)C)NC(=O)[C@H](CC(C)C)NC(=O)[C@H](Cc1ccc(O)cc1)NC(=O)CNC(=O)[C@H](C)NC(=O)[C@H](CO)NC(=O)[C@H](CC(N)=O)NC(=O)[C@H](CC(C)C)NC(=O)[C@@H](NC(=O)[C@H](Cc1c[nH]c2ccccc12)NC(=O)CN)[C@@H](C)O)C(N)=O [Gal(1-13)-Std I] (H-GWTLNSAGYLLGP[dR]PKPQQ[dW]F[dW]LL-NH2)	9.1 nM
H-ELEPEDEARPGGFDRLQSQDKAIRTIMEFLAFLHLKEAGAL-NH2 [GMAP (1-41)]	840 nM
H-GWTLNSAGYLLGPPPALALA-NH2 [M40]	18 nM
